Reference: patent US20140228423A1, “BIOMARKERS AND THERAPY FOR CANCER” (BAYLOR COLLEGE OF MEDICINE, priority 2011, published 2014)

How the values were obtained:
[1] = tested on: Dicer-Pten DKO mouse cancer cell line; assay: QPCR analysis of miR-34c downstream genes after miR-34c mimic transfection; assay type: cell-based
Excerpt: In FIG. 14, miR-34c inhibits cyclinE-CDK2 complex. Analysis of some of miR-34c downstream genes is shown. QPCR analysis showing relative quantity of CDK2 (A), CCNE2 (B) and CDKN1C(C) after miR-34c mimic transfection in Dicer-Pten DKO mouse cancer cell line.

[2] = tested on: OVCAR8; assay: Lentiviral expression of miR-34c in OVCAR8: proliferation (CellTiter-Glo) and cell cycle (PI flow cytometry); assay type: cell-based, human
Protocol: (§1) FIG. 10. Drug and miRNA mimic effects on ovarian cancer cell viability (A-C) and proliferation (D). OVCAR8 cancer cells were incubated for 48 hours in the presence of YM155 (A) or everolimus (B) and assayed for cell viability. C. Three independent PTEN/DICER DKO mouse serous carcinoma cell lines were transfected with miRNA control (miR-Ctrl) or miR-34c mimics and assayed for cell viability 48 hours later. D. OVCAR8 cells were infected with lentivirus expressing miR-Ctrl or miR-34c and assayed for cell number. *, P<0.05; **, P<0.005; ***, P<0.0005
In FIG. 16A, OVCAR8 infected with miR-34c or control lentivirus were seeded onto 96-well plates for proliferation assay measured by CellTiter-Glo assay. In FIG. 16B, five days after miR-34c or control lentivirus infection, cells were fixed in cold 70% ethanol and stained with PI. Cell cycle profiles were determined by flow cytometry and analyzed by flowjo.

[3] = tested on: Dicer-Pten DKO mouse cancer cell lines; assay: Cell cycle analysis (PI, flow cytometry) after miR-34c transfection; assay type: cell-based; details: 48 hours after miR-34c transfection
Protocol: (§2) FIG. 13A is a cell viability assay. Dicer-Pten DKO mouse cancer cell lines were transfected with miR-34c followed by cell viability assay in 48 hours using CellTiter-Glo assay. FIG. 13B is cell cycle analysis. Forty-eight hours after miR-34c transfection, Dicer-Pten DKO mouse cancer cell lines were fixed in cold 70% ethanol and stained with PI. Cell cycle profiles were determined by flow cytometry and analyzed by flowjo.

[4] = tested on: Dicer-Pten DKO mouse cancer cell lines; assay: Cell viability (CellTiter-Glo) of Dicer-Pten DKO mouse cancer cell lines after miRNA mimic transfection or everolimus; assay type: cell-based; details: for sensitivity of cells (anti-proliferative, secondary to G1 arrest, and pro-apoptotic effects): Dicer/Pten double null line from primary mouse serous cancer, everolimus 0.8 uM, 48 h, alone and in combination; for cell viability and proliferation after miR-34c mimic delivery: mouse and human serous cancer cell lines (three PTEN/DICER DKO lines, OVCAR8)
Protocol: FIG. 4. Activation of the PI3K pathway in Dicer/Pten DKO mice and effects of mir34c and everolimus on a Dicer/Pten DKO cell line. A, Western blot analysis of DKO fallopian tube tumors showing activation of AKT signaling compared with control fallopian tubes. B, A Dicer/Pten DKO cell line was transfected with miR-34c mimic or a control (miR-Ctrl), treated with everolimus (0.8 uM) or without (DMSO), and examined 48 h later for the effects on cell viability.
To functionally evaluate the roles of miR34c and the mTOR inhibitor everolimus in serous cancers, the inventors first generated 32 cell lines from primary cancers (5 lines), metastatic lesions (11 lines), and ascites fluid (16 lines) of independent Dicer/Pten DKO mice. The effects were analyzed of everolimus and miR-34c mimic alone and in combination on a confirmed Dicer/Pten double null cell line derived from a primary mouse serous cancer. […] Based on the studies, there are the following considerations: 1) MiR-34c and additional miRNAs function to suppress the development of high grade serous carcinomas and the […], and/or 2) Simultaneous pharmacological targeting of mTOR and pathways downstream of miR-34c and other miRNAs leads to therapies to eradicate high-grade serous carcinomas.
Dicer-Pten DKO mouse cancer cell line DKO-1 were transfected with various miRNA mimics including miR-31, miR-100, let-7b, miR-34c or a miRNA control (miR-Ctrl). Cell viability was measured by ATP quantitation-based CellTiter-Glo assay 48 hours after transfection.
as §2

[5] = tested on: PTEN/DICER DKO primary serous cancer cell lines; assay: Microarray analysis (QPCR follow-up) of gene expression after miR-34c mimic transfection; assay type: cell-based, mouse
Protocol: To characterize the roles of miR-34c in regulating major cancer and cell cycle pathways, mimics were transfected into three independent PTEN/DICER DKO primary serous cancer cell lines and the human OVCAR8 serous cancer cell line and assayed for cell viability and cell proliferation (FIG. 5C, D) and microarray analysis was performed, with followup QPCR confirmation. […] The effects were examined of miR-34c on major pathway genes that contain miR-34c binding sites in their 3′UTR sequences as well as pathways in which these proteins lie. […] These findings are especially relevant to cancer treatment since mutations in TOP2A are associated with drug resistance, and TOP2A is the target for several chemotherapeutic agents.

[6] = tested on: mouse serous cancer cell lines and the human serous cancer line OVCAR8; assay: Treatment of serous cancer cell lines with YM155 or everolimus; assay type: cell-based
Excerpt: Well-known as an apoptosis inhibitor, survivin has been identified to contribute to nearly every aspect of cancer from onset to outcome (Altieri, 2008; Martinelli et al., 2006). Nearly all serous, endometrioid, and poorly-differentiated ovarian cancers express surviving (Cohen et al., 2003), the levels of survivin correlate with poor prognostic parameters (Cohen et al., 2003), high levels of survivin are associated with taxol/platinum resistance (Zaffaroni et al., 2002), and women with PTEN-negative/survivin-positive ovarian cancers have the worst prognosis (Sui et al., 2006). […] Based on these findings, the inventors treated mouse serous cancer cell lines and the human serous cancer line OVCAR8 with YM155 or everolimus, an inhibitor of mTOR (FIG. 5A, B). […] These findings indicate that YM155 and everolimus can be used to identify small molecules that synergize with the compounds to eradicate high-grade serous carcinomas in women.

[7] = tested on: OVCAR8 cells; assay: High-throughput screen of Prestwick Chemical Library with or without YM155
Protocol: High-throughput screen for drugs that synergize with YM155. […] Digitonin (0.8 mg/ml) was used as a positive control for ˜100% cell death. […] The relative synergy for each drug was then calculated by subtracting measured cell survival of combinatorial treatment from the calculated c value.
To identify additional small molecules that synergize with YM155, a small library screen was performed.

[8] = tested on: OVCAR8 cells; assay: Illumina gene expression analysis of YM155-treated versus DMSO-treated OVCAR8 cells; assay type: cell-based, human; details: OVCAR8, 6 hours
Protocol: (§3) To characterize the early targets of YM155 in cancer cells, the ovarian cancer cell line OVCAR8 was treated acutely for 6 hours with YM155 (10 nM). Using Illumina gene expression analysis and QPCR followup, YM155-treated cells were compared with DMSO vehicle treated cells. […] DDIT3 (a.k.a., CHOP) is a proapoptotic protein whose induction is a hallmark of ER stress induced apoptosis (Wang et al., 2010). […] HSP72 has strong cytoprotective effect by functioning as a molecular chaperone in cytosolic protein folding, transport, and degradation (Morimoto et al., 1997; Tavaria et al., 1996), and as an inhibitor of cellular apoptosis (Gamido et al., 2003; Samali and Orrenius, 1998). In addition, HSP72 interacts with ER stress sensor protein IRE1a thereby enhancing IREla-XBP1 signaling at the ER and promoting adaptation to ER stress and cell survival (Gupta et al., 2010). HSP72 is normally expressed at low levels, and is induced upon exposure to environmental stress to exert its cytoprotective effect. However, in cancer, HSP72 is constitutively expressed in many cancer cell lines and biopsies, and its expression correlates with poor prognosis (Gabai et al., 2009). HSP72 provides a selective advantage to cancer cells by suppressing default senescence via p53-dependent and p53-independent pathways (Yaglom et al., 2007). Thus, YM155 acutely suppresses HSPA1A and HSPA1B, indicating a novel mechanism which may contribute directly to the anti-cancer effect of YM155.

[9] = tested on: ovarian cancer cell lines and a pancreatic cancer cell line; assay: Cell Titer Glo viability with YM155, parthenolide or both for 48 hours; details: single agents at levels giving about half inhibition, and their combination
[10] = tested on: OVCAR8 cells; assay: QPCR follow-up of YM155-treated versus DMSO-treated OVCAR8 cells; assay type: cell-based, human; details: OVCAR8, 6 hours
Excerpt: as §3, with “Using” for “To characterize the early targets of YM155 in cancer cells, the ovarian cancer cell line OVCAR8 was treated acutely for 6 hours with YM155 (10 nM). Using”

[11] = tested on: OVCAR8 cells; assay: Cell viability of OVCAR8 cells after 48 hours with drug (dose response); assay type: cell-based; details: Homo sapiens, OVCAR-8; 48-hr treatment of OVCAR8 cells
Protocol: as §1
FIG. 17. Dose response curve of YM155 after 48-hr treatment of OVCAR8 cells.
Well-known as an apoptosis inhibitor, survivin has been identified to contribute to nearly every aspect of cancer from onset to outcome (Altieri, 2008; Martinelli et al., 2006). Nearly all serous, endometrioid, and poorly-differentiated ovarian cancers express surviving (Cohen et al., 2003), the levels of survivin correlate with poor prognostic parameters (Cohen et al., 2003), high levels of survivin are associated with taxol/platinum resistance (Zaffaroni et al., 2002), and women with PTEN-negative/survivin-positive ovarian cancers have the worst prognosis (Sui et al., 2006). […] Based on these findings, the inventors treated mouse serous cancer cell lines and the human serous cancer line OVCAR8 with YM155 or everolimus, an inhibitor of mTOR (FIG. 5A, B). […]

[12] = transient transfection, Dicer-Pten DKO cell lines

miR-34c mimic: mimic of miR-34c, mature sequence AGGCAGUGUAGUUAGCUGAUUGC (SEQ ID NO:2); also delivered by lentivirus (listed as RNA, chemistry not given here)
CDK2 relative quantity [1]: down regulating | CDKN1C relative quantity [1]: up regulating | cyclinE (CCNE2) relative quantity [1]: down regulating | cell cycle profile ([2]; five days after lentivirus infection, OVCAR8): arresting cancer cells in G1 phase | cell proliferation ([2]; lentiviral expression of miR-34c in OVCAR8): inhibits cell proliferation | cell cycle profile [3]: cell cycle arrest in G1 phase | sensitivity of cells (anti-proliferative, secondary to G1 arrest, and pro-apoptotic effects) [4]: exquisitely sensitive | suppression of mouse and human ovarian cancer cell viability among miRNAs tested ([4]; Dicer/Pten serous ovarian cancer model): the only miRNA to suppress | cell viability and proliferation after miR-34c mimic delivery [4]: dramatic effect | cell viability and proliferation after miR-34c mimic delivery ([4]; listed as miR-34c): reduced cell viability | apoptosis [4, 12]: induction of apoptosis | cell growth [4, 12]: growth inhibitory effect | suppression of TOP2A ([5]; by the miR-34c mimic): 11.7 fold | Fold Change miR-34c mimic: CCNE2 ([5]; gene CCNE2, predicted miR-34c binding site): −4.6 | Fold Change miR-34c mimic: CDC6 ([5]; gene CDC6, predicted miR-34c binding site): −5.5 | Fold Change miR-34c mimic: CDCA8 ([5]; gene CDCA8, predicted miR-34c binding site): −9.6 | Fold Change miR-34c mimic: CDK2 ([5]; gene CDK2): −3.4 | Fold Change miR-34c mimic: CDT1 ([5]; gene CDT1): −6.3 | Fold Change miR-34c mimic: INCENP ([5]; gene INCENP): −4.5 | Fold Change miR-34c mimic: MCM5 ([5]; gene MCM5, predicted miR-34c binding site): −18.7 | Fold Change miR-34c mimic: MDM2 ([5]; gene MDM2): 1.0 | Fold Change miR-34c mimic: MRVI1 ([5]; gene MRVI1): 10.2 | Fold Change miR-34c mimic: PBK ([5]; gene PBK): −5.7 | Fold Change miR-34c mimic: Survivin ([5]; gene Survivin): −4.8 | Fold Change miR-34c mimic: TOP2A ([5]; gene TOP2A): −11.7 | upregulation of MRVI1 ([5]; miR-34c mimic): 10.2 fold | downregulation of direct targets MCM5, CDC6, CCNE2 and CDCA8 ([5]; upon delivery of miR-34c): 4.6-18.7 fold

CO[C@H]1C[C@@H]2CC[C@@H](C)[C@@](O)(O2)C(=O)C(=O)N2CCCC[C@H]2C(=O)O[C@H]([C@H](C)C[C@@H]2CC[C@@H](OCCO)[C@H](OC)C2)CC(=O)[C@H](C)/C=C(\C)[C@@H](O)[C@@H](OC)C(=O)[C@H](C)C[C@H](C)/C=C/C=C/C=C/1C [everolimus, reference compound]
sensitivity of the tumors (cell viability) [6]: micromolar levels | sensitivity of cells (anti-proliferative, secondary to G1 arrest, and pro-apoptotic effects) [4]: exquisitely sensitive

C[C@@H]1CC[C@@]2(OC1)O[C@H]1[C@@H](O)[C@H]3[C@@H]4CC[C@H]5C[C@@H](O[C@@H]6O[C@H](CO)[C@H](O[C@@H]7O[C@H](CO)[C@@H](O)[C@H](O[C@@H]8OC[C@@H](O)[C@H](O)[C@H]8O)[C@H]7O[C@@H]7O[C@H](CO)[C@H](O)[C@H](O[C@@H]8O[C@H](CO)[C@@H](O)[C@H](O)[C@H]8O)[C@H]7O)[C@H](O)[C@H]6O)[C@H](O)C[C@]5(C)[C@H]4CC[C@]3(C)[C@H]1[C@@H]2C [Digitonin]
cell death ([7]; 0.8 mg/ml, positive control): ~100%

COCCn1c2c([n+](Cc3cnccn3)c1C)C(=O)c1ccccc1C2=O [YM155, sepantronium bromide]
Fold Change YM155 (10 nM)/DMSO (Array): ATF3 [8]: 2.2 | Fold Change YM155 (10 nM)/DMSO (Array): BIRC5 (Survivin) [8]: −1.3 | Fold Change YM155 (10 nM)/DMSO (Array): DDIT3 [8]: 3.8 | Fold Change YM155 (10 nM)/DMSO (Array): DDIT4 [8]: 5.6 | Fold Change YM155 (10 nM)/DMSO (Array): HERPUD1 [8]: 2.2 | Fold Change YM155 (10 nM)/DMSO (Array): HSPA1A [8]: −2.6 | Fold Change YM155 (10 nM)/DMSO (Array): HSPA1B [8]: −2.6 | Fold Change YM155 (10 nM)/DMSO (Array): TRIB3 [8]: 2.6 | viability at 0.003 µM ([7]; Homo sapiens, OVCAR-8, read-out: Cell viability): 64.3% | inhibition of cancer cell viability [9]: ~50% | Fold Change YM155 (30 nM)/DMSO (QPCR): ATF3 [10]: 11.1 | Fold Change YM155 (30 nM)/DMSO (QPCR): BIRC5 (Survivin) [10]: −1.1 | Fold Change YM155 (30 nM)/DMSO (QPCR): DDIT3 [10]: 3.6 | Fold Change YM155 (30 nM)/DMSO (QPCR): DDIT4 [10]: 10.6 | Fold Change YM155 (30 nM)/DMSO (QPCR): HERPUD1 [10]: 3.1 | Fold Change YM155 (30 nM)/DMSO (QPCR): HSPA1A [10]: −7.5 | Fold Change YM155 (30 nM)/DMSO (QPCR): HSPA1B [10]: −4.4 | Fold Change YM155 (30 nM)/DMSO (QPCR): TRIB3 [10]: 2.0 | GI50 [11]: 4.6 nM

COc1cc(/C=C/C(=O)N2CCC=CC2=O)cc(OC)c1OC [Piperlongumine]
cell survival ([7]; concentration of 6.3 mM): 10 % of the control
